According to patent publication US11098056B2, “UDP glycosyltransferase inhibitors and methods of use” (GENZYME CORPORATION, priority 2018, dated 2021):

What was measured:
UGT8 [1] = target: T1, UGT8 (Mus musculus, UniProt Q64676); assay: Acute in vivo target engagement in neonatal mouse brain: inhibition of de novo GalCer and SFT synthesis (13C-Gal incorporation); details: neonatal mouse (P14-P21) brain, 5 hr
T1 construct: Groups of 5 male C57Bl/6 mice, 6-9 wks of age (Charles River Laboratories); tissue Charles River Laboratories; host or cells: mouse kidney (adult C57Bl/6) and mid-/hind brain (neonatal P14-P21 mice)
T1 sequence (Q64676 21-541): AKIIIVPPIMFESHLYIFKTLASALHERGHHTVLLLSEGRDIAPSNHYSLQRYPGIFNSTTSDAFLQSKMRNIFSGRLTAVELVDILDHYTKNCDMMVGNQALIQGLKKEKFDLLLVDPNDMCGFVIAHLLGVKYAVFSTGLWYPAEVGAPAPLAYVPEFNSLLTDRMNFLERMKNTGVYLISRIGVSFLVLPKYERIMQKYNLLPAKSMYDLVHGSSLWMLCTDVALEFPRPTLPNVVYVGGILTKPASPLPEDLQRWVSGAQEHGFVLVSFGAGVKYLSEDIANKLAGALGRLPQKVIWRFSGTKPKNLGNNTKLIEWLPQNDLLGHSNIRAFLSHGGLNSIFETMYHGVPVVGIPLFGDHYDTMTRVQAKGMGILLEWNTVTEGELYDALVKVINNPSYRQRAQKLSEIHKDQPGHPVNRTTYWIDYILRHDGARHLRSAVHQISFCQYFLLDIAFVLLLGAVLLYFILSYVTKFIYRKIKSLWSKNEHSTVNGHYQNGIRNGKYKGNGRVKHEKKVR
From the text: SFT biosynthesis and turnover in the myelin of adult mice is very low, necessitating development of a short-term acute model of de novo synthesis inhibition. To do this, we took advantage of the fact that unlike primates in which most developmental myelination occurs in utero, in rodents, peak myelination occurs between postnatal day 14 (P14) and P22.
Groups of 5 neonatal mice age-matched between P14 and P21 received test article formulated in a clinically-acceptable formulation, administered by oral gavage; the control group received vehicle alone. One hr after administration of test article, animals received an i.p. injection of 13C-Gal (3 g/kg); 5 hr after administration of test article, animals were euthanized, brains were removed and dissected for recovery of mid- and hind brain which was snap-frozen and stored at −80° C. until analysis. Plasma samples were also collected for test article exposure analysis.
(§1) Mass Spectrometer Analysis of SFT
(§2) Quantitative analysis of sphingolipids (SLs) was performed using liquid chromatography with tandem mass spectrometry analysis (LC-MS/MS). Briefly, to extract glucosylceramide (GlcCer), galactosylceramide (GalCer), and sulfatide (ST), an aliquot of 10 μL of mouse tissue homogenate (100 mg/ml in water) was mixed with 1 mL of extraction solution (0.2% Formic Acid; 5 mM Ammonium formate in (50:50) Methanol:Acetonitrile (v/v) with internal standards (IS)). C17-ST and D35 labeled C18-GalCer were used for IS. The mixtures were vortexed and centrifuged. The resulting supernatants were transferred to HPLC vials for LC-MS/MS analysis. GlcCer and GalCer were separated using a Waters Acquity UPLC and Atlantis HILIC Silica column (2.1 mm×150 mm, […], Waters Corp., Milford, Mass.) and analyzed by an API 5000 triple quadrupole mass spectrometer in MRM mode (Applied Biosystems, Foster City, Calif.). ST were analyzed using a Waters Acquity UPLC and BEH C18 column (2.1 mm×50 mm, […], Waters Corp., Milford, Mass.) and analyzed by an API 6500 triple quadrupole mass spectrometer in MRM mode (Applied Biosystems, Foster City, Calif.).

UGT8 [2] = target: T2, UGT8 (Homo sapiens, UniProt Q16880); assay: In vitro sulfatide (SFT) synthesis inhibition in OE19 cells, LC-MS/MS readout; assay type: cell-based; details: 72 hr, sulfatide by LC-MS/MS, read-out: Potency range (IC50, In-vitro SFT)
T2 construct: host or cells: OE19 cells
T2 sequence (Q16880 21-541): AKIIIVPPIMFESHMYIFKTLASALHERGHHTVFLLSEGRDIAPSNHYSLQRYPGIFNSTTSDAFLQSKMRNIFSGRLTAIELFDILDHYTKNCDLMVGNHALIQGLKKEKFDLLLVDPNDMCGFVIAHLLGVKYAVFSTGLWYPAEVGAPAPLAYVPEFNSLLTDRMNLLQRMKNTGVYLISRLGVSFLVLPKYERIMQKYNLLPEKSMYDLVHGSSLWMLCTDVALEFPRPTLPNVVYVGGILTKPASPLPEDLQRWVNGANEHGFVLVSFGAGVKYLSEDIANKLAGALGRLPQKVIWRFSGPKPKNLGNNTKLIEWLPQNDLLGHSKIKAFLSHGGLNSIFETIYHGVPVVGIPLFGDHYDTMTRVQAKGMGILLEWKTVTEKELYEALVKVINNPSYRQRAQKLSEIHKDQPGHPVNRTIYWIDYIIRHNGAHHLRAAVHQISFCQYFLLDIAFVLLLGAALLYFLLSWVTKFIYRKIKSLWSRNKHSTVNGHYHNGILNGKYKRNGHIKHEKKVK
Summary of the method: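 OE19 cells, 2,500/well, exposed to compound dose-downs in triplicate for 72 hr at 37° C (screening at 10 μM final). Sulfatide quantified by LC-MS/MS (C8 UPLC, isocratic, negative-ion MRM) with C17 SFT internal standard; IC50 from concentration-response curves.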

UGT8 [3] = target: T1, UGT8; assay: Acute in vivo target engagement in mouse kidney: inhibition of de novo GalCer and SFT synthesis (13C-Gal incorporation); details: 5 hr
Protocol: In vivo target engagement was initially assessed in an adult mouse kidney model assessing de novo synthesis inhibition. This model was selected because the high rate of GalCer and SFT synthesis and turnover in kidney facilitated development of an acute one-day model assessing the effect of a single administration of compound at different doses. Inhibition of de novo synthesis was determined by measuring the amount of 13C6 galactose (13C-Gal; CIL, cat #CLM-1570-pk) incorporated into GalCer and SFT.
Groups of 5 male C57Bl/6 mice, 6-9 wks of age (Charles River Laboratories) were maintained in an ALAAC-accredited vivarium with food and water ad libitum and were allowed to acclimate one week before initiating studies. Three to 5 dose groups received test article formulated in a clinically-acceptable formulation, administered by oral gavage; the control group received vehicle alone. One hr after administration of test article, animals received an intraperitoneal (i.p.) injection of 13C-Gal (3 g/kg); 5 hr after administration of test article, animals were euthanized and a kidney was removed and divided into two longitudinal samples that were snap-frozen and stored at −80° C. until processing for test article tissue exposure and lipid analysis (GalCer and SFT). Typically, brain and plasma samples were also collected for test article exposure.
as §1, §2

brain GalCer % inh (UGT8 [1]; single oral dose 3 mg/kg)	brain Sulfatide % inh (UGT8 [1]; single oral dose 3 mg/kg)	brain GalCer % inh (UGT8 [1]; single oral dose 10 mg/kg)	brain Sulfatide % inh (UGT8 [1]; single oral dose 10 mg/kg)	brain GalCer % inh (UGT8 [1]; single oral dose 30 mg/kg)	brain Sulfatide % inh (UGT8 [1]; single oral dose 30 mg/kg)	IC50 (UGT8 [2])	kidney GalCer % inh (UGT8 [3]; single oral dose 1 mg/kg)	kidney Sulfatide % inh (UGT8 [3]; single oral dose 1 mg/kg)	kidney GalCer % inh (UGT8 [3]; single oral dose 3 mg/kg)	kidney Sulfatide % inh (UGT8 [3]; single oral dose 3 mg/kg)	kidney GalCer % inh (UGT8 [3]; single oral dose 10 mg/kg)	kidney Sulfatide % inh (UGT8 [3]; single oral dose 10 mg/kg)	kidney GalCer % inh (UGT8 [3]; single oral dose 30 mg/kg)	kidney Sulfatide % inh (UGT8 [3]; single oral dose 30 mg/kg)	brain GalCer % inh (UGT8 [1]; single oral dose 100 mg/kg)	brain Sulfatide % inh (UGT8 [1]; single oral dose 100 mg/kg)	kidney GalCer % inh (UGT8 [3]; single oral dose 50 mg/kg)	Compound	other results
A, A, A (A > 80%)	A, A, A (A > 80%)	A, A, A (A > 80%)	A, A, A (A > 80%)	A, A, A (A > 80%)	A, A, A (A > 80%)	< 100 nM	C (C < 40%)	B (40% < B < 80%)	A (A > 80%)	A (A > 80%)	A (A > 80%)	A (A > 80%)	A (A > 80%)	A (A > 80%)				CNC(=O)c1csc2c(C(F)(F)F)cc(N3CCC(OC(=O)N[C@@H](C)COC(F)(F)F)CC3)nc12 [Example 90, 1-(3-(Methylcarbamoyl)-7-(trifluoromethyl)thieno[3,2-b]pyridin-5-yl)piperidin-4-yl (S)-(1-(trifluoromethoxy)propan-2-yl)carbamate]	kidney GalCer % inh (UGT8 [3]; single oral dose 0.3 mg/kg): C (C < 40%); kidney Sulfatide % inh (UGT8 [3]; single oral dose 0.3 mg/kg): C (C < 40%)
		B, B, B (40% < B < 80%)	A, A, A (A > 80%)	B, B, B (40% < B < 80%)	A, A, A (A > 80%)	< 100 nM					B (40% < B < 80%)				B, B, B (40% < B < 80%)	A, A, A (A > 80%)	A (A > 80%)	CNC(=O)c1csc2c(C(F)(F)F)cc(N3CCC(OC(=O)N[C@@H](C)C4CC4)CC3)nc12 [Example 109, 1-(3-(Methylcarbamoyl)-7-(trifluoromethyl)thieno[3,2-b]pyridin-5-yl)piperidin-4-yl (S)-(1-cyclopropylethyl)carbamate]	kidney GalCer % inh (UGT8 [3]; single oral dose 5 mg/kg): C (C < 40%)
B (40% < B < 80%)	B (40% < B < 80%)	A (A > 80%)	A (A > 80%)			< 100 nM	C (C < 40%)	C (C < 40%)	C (C < 40%)	C (C < 40%)	B (40% < B < 80%)	B (40% < B < 80%)	A (A > 80%)	A (A > 80%)				CNC(=O)c1csc2c(C(F)(F)F)cc(O[C@@H]3CCN(C(=O)OCCOC(F)(F)F)[C@H](C)C3)nc12 [Example 375, 2-(Trifluoromethoxy)ethyl (2R,4R)-2-methyl-4-((3-(methylcarbamoyl)-7-(trifluoromethyl)thieno[3,2-b]pyridin-5-yl)oxy)piperidine-1-carboxylate]	brain GalCer % inh (UGT8 [1]; single oral dose 1 mg/kg): B (40% < B < 80%); brain Sulfatide % inh (UGT8 [1]; single oral dose 1 mg/kg): B (40% < B < 80%); kidney GalCer % inh (UGT8 [3]; single oral dose 100 mg/kg): A (A > 80%); kidney Sulfatide % inh (UGT8 [3]; single oral dose 100 mg/kg): A (A > 80%)
		A, A, A (A > 80%)	A, A, A (A > 80%)	A, A, A (A > 80%)	A, A, A (A > 80%)	< 100 nM			C (C < 40%)	C (C < 40%)	C (C < 40%)	B (40% < B < 80%)			A, A, A (A > 80%)	A, A, A (A > 80%)	B (40% < B < 80%)	CNC(=O)c1csc2c(C(F)(F)F)cc(N3CCC(OC(=O)NC4CC4)CC3)nc12 [Example 473, 1-(3-(Methylcarbamoyl)-7-(trifluoromethyl)thieno[3,2-b]pyridin-5-yl)piperidin-4-yl cyclopropylcarbamate]	kidney Sulfatide % inh (UGT8 [3]; single oral dose 50 mg/kg): A (A > 80%)
